This passage reports MIC results from ChEMBL document CHEMBL1144513, “Synthesis and SAR study of novel 7-(pyridinium-3-yl)-carbonyl imidazo[5,1-b]thiazol-2-yl carbapenems” (2007).

In brackets after ≈: the same amount, converted by molar mass.

One assay deals with Staphylococcus aureus. Nature of the assay: Antibacterial activity against Staphylococcus aureus 209P JC1 by agar dilution method. In kind it is functional. In general terms: In agar dilution the substance is mixed into plates at graded concentrations.
Take `C[C@@H](O)[C@H]1C(=O)N2C(C(=O)O)=C(c3cn4cnc(C(=O)c5cnc6ccccc6c5)c4s3)[C@H](C)[C@H]12`: the MIC is no more than 0.008 µg/mL.
In turn, `CC(=O)C[n+]1cccc(C(=O)c2ncn3cc(C4=C(C(=O)[O-])N5C(=O)[C@H]([C@@H](C)O)[C@H]5[C@H]4C)sc23)c1` displayed an MIC of 0.016 µg/mL (≈ 0.0324 µM).
With `Cc1nc(C(=O)c2ccc[n+](CC(N)=O)c2)c2sc(C3=C(C(=O)[O-])N4C(=O)[C@H]([C@@H](C)O)[C@H]4[C@H]3C)cn12`, the MIC was 0.016 µg/mL (≈ 0.0314 µM).
The compound `C[C@@H](O)[C@H]1C(=O)N2C(C(=O)[O-])=C(c3cn4cnc(C(=O)c5ccc[n+](CC(=O)C(F)(F)F)c5)c4s3)[C@H](C)[C@H]12` yielded an MIC of 0.016 µg/mL (≈ 0.0292 µM).

Another assay concerns Staphylococcus aureus. The experiment in a line: Antibacterial activity against methicillin-resistant Staphylococcus aureus M126 by agar dilution method. The class given is functional.
For `C[C@@H](O)[C@H]1C(=O)N2C(C(=O)O)=C(c3cn4cnc(C(=O)c5cnc6ccccc6c5)c4s3)[C@H](C)[C@H]12`, the MIC came out at 0.016 µg/mL (≈ 0.0328 µM).
`CC(=O)C[n+]1cccc(C(=O)c2ncn3cc(C4=C(C(=O)[O-])N5C(=O)[C@H]([C@@H](C)O)[C@H]5[C@H]4C)sc23)c1` gave an MIC of 1 µg/mL (≈ 2.02 µM).
In the case of `Cc1nc(C(=O)c2ccc[n+](CC(N)=O)c2)c2sc(C3=C(C(=O)[O-])N4C(=O)[C@H]([C@@H](C)O)[C@H]4[C@H]3C)cn12`, the MIC amounted to 1 µg/mL (≈ 1.96 µM).
In the case of `C[C@@H](O)[C@H]1C(=O)N2C(C(=O)[O-])=C(c3cn4cnc(C(=O)c5ccc[n+](CC(=O)C(F)(F)F)c5)c4s3)[C@H](C)[C@H]12`, the MIC turned out to be 1 µg/mL (≈ 1.82 µM).

Another assay relates to Staphylococcus aureus. Nature of the assay: Antibacterial activity against carbapenem and methicillin-resistant Staphylococcus aureus M126HR by agar dilution method. In kind it is functional.
`C[C@@H](O)[C@H]1C(=O)N2C(C(=O)O)=C(c3cn4cnc(C(=O)c5cnc6ccccc6c5)c4s3)[C@H](C)[C@H]12` had an MIC of 2 µg/mL (≈ 4.09 µM).
The compound `CC(=O)C[n+]1cccc(C(=O)c2ncn3cc(C4=C(C(=O)[O-])N5C(=O)[C@H]([C@@H](C)O)[C@H]5[C@H]4C)sc23)c1` returned an MIC of 4 µg/mL (≈ 8.09 µM).
`Cc1nc(C(=O)c2ccc[n+](CC(N)=O)c2)c2sc(C3=C(C(=O)[O-])N4C(=O)[C@H]([C@@H](C)O)[C@H]4[C@H]3C)cn12` registered an MIC of 4 µg/mL (≈ 7.85 µM).
Regarding `C[C@@H](O)[C@H]1C(=O)N2C(C(=O)[O-])=C(c3cn4cnc(C(=O)c5ccc[n+](CC(=O)C(F)(F)F)c5)c4s3)[C@H](C)[C@H]12`, the MIC turned out to be 4 µg/mL (≈ 7.29 µM).

The subject of another assay is Streptococcus pneumoniae. Nature of the assay: Antibacterial activity against penicillin-resistant Streptococcus pneumoniae KK133 by agar dilution method. The class given is functional.
On to `C[C@@H](O)[C@H]1C(=O)N2C(C(=O)O)=C(c3cn4cnc(C(=O)c5cnc6ccccc6c5)c4s3)[C@H](C)[C@H]12`, for which the MIC came out at 0.031 µg/mL (≈ 0.0635 µM).
On the same count and under the same terms, in the case of `CC(=O)C[n+]1cccc(C(=O)c2ncn3cc(C4=C(C(=O)[O-])N5C(=O)[C@H]([C@@H](C)O)[C@H]5[C@H]4C)sc23)c1` it was 0.063 µg/mL (≈ 0.127 µM); in that of `Cc1nc(C(=O)c2ccc[n+](CC(N)=O)c2)c2sc(C3=C(C(=O)[O-])N4C(=O)[C@H]([C@@H](C)O)[C@H]4[C@H]3C)cn12`, 0.031 µg/mL (≈ 0.0608 µM).
For the compound `C[C@@H](O)[C@H]1C(=O)N2C(C(=O)[O-])=C(c3cn4cnc(C(=O)c5ccc[n+](CC(=O)C(F)(F)F)c5)c4s3)[C@H](C)[C@H]12`, the MIC was determined as 0.063 µg/mL (≈ 0.115 µM).

Another assay has as its system Escherichia coli. The experiment in a line: Antibacterial activity against Escherichia coli NIHJ JC2 by agar dilution method. In kind it is functional.
On to `C[C@@H](O)[C@H]1C(=O)N2C(C(=O)O)=C(c3cn4cnc(C(=O)c5cnc6ccccc6c5)c4s3)[C@H](C)[C@H]12`, for which the MIC was found to be 4 µg/mL (≈ 8.19 µM).
Turning to `CC(=O)C[n+]1cccc(C(=O)c2ncn3cc(C4=C(C(=O)[O-])N5C(=O)[C@H]([C@@H](C)O)[C@H]5[C@H]4C)sc23)c1`, the MIC worked out at 0.125 µg/mL (≈ 0.253 µM).
Compound `Cc1nc(C(=O)c2ccc[n+](CC(N)=O)c2)c2sc(C3=C(C(=O)[O-])N4C(=O)[C@H]([C@@H](C)O)[C@H]4[C@H]3C)cn12` showed an MIC of 0.25 µg/mL (≈ 0.491 µM).
With `C[C@@H](O)[C@H]1C(=O)N2C(C(=O)[O-])=C(c3cn4cnc(C(=O)c5ccc[n+](CC(=O)C(F)(F)F)c5)c4s3)[C@H](C)[C@H]12`, the MIC came to 0.125 µg/mL (≈ 0.228 µM).

The subject of the next assay is Klebsiella pneumoniae. The experiment in a line: Antibacterial activity against Klebsiella pneumoniae GN69 by agar dilution method. The class given is functional.
In turn, `C[C@@H](O)[C@H]1C(=O)N2C(C(=O)O)=C(c3cn4cnc(C(=O)c5cnc6ccccc6c5)c4s3)[C@H](C)[C@H]12` registered an MIC of 8 µg/mL (≈ 16.4 µM).
`CC(=O)C[n+]1cccc(C(=O)c2ncn3cc(C4=C(C(=O)[O-])N5C(=O)[C@H]([C@@H](C)O)[C@H]5[C@H]4C)sc23)c1` showed an MIC of 0.25 µg/mL (≈ 0.506 µM).
Compound `Cc1nc(C(=O)c2ccc[n+](CC(N)=O)c2)c2sc(C3=C(C(=O)[O-])N4C(=O)[C@H]([C@@H](C)O)[C@H]4[C@H]3C)cn12` showed an MIC of 0.5 µg/mL (≈ 0.981 µM).
`C[C@@H](O)[C@H]1C(=O)N2C(C(=O)[O-])=C(c3cn4cnc(C(=O)c5ccc[n+](CC(=O)C(F)(F)F)c5)c4s3)[C@H](C)[C@H]12` yielded an MIC of 0.25 µg/mL (≈ 0.456 µM).

Another assay concerns Moraxella catarrhalis. Nature of the assay: Antibacterial activity against Moraxella catarrhalis W-0500 by agar dilution method. In kind it is functional.
The compound `C[C@@H](O)[C@H]1C(=O)N2C(C(=O)O)=C(c3cn4cnc(C(=O)c5cnc6ccccc6c5)c4s3)[C@H](C)[C@H]12` gave an MIC of 0.031 µg/mL (≈ 0.0635 µM).
As for `CC(=O)C[n+]1cccc(C(=O)c2ncn3cc(C4=C(C(=O)[O-])N5C(=O)[C@H]([C@@H](C)O)[C@H]5[C@H]4C)sc23)c1`, the MIC is 0.031 µg/mL (≈ 0.0627 µM).
The same measure, in the same setting: for `Cc1nc(C(=O)c2ccc[n+](CC(N)=O)c2)c2sc(C3=C(C(=O)[O-])N4C(=O)[C@H]([C@@H](C)O)[C@H]4[C@H]3C)cn12` the value was 0.008 µg/mL (≈ 0.0157 µM); for `C[C@@H](O)[C@H]1C(=O)N2C(C(=O)[O-])=C(c3cn4cnc(C(=O)c5ccc[n+](CC(=O)C(F)(F)F)c5)c4s3)[C@H](C)[C@H]12`, 0.031 µg/mL (≈ 0.0565 µM).

The test system of a further assay is Haemophilus influenzae. Nature of the assay: Antibacterial activity against beta-lactamase-negative ampicillin-resistant Haemophilus influenzae 870 by agar dilution method. In kind it is functional.
On to `C[C@@H](O)[C@H]1C(=O)N2C(C(=O)O)=C(c3cn4cnc(C(=O)c5cnc6ccccc6c5)c4s3)[C@H](C)[C@H]12`, for which the MIC worked out at 0.125 µg/mL (≈ 0.256 µM).
`CC(=O)C[n+]1cccc(C(=O)c2ncn3cc(C4=C(C(=O)[O-])N5C(=O)[C@H]([C@@H](C)O)[C@H]5[C@H]4C)sc23)c1` yielded an MIC of 0.063 µg/mL (≈ 0.127 µM).
Regarding `Cc1nc(C(=O)c2ccc[n+](CC(N)=O)c2)c2sc(C3=C(C(=O)[O-])N4C(=O)[C@H]([C@@H](C)O)[C@H]4[C@H]3C)cn12`, the MIC turned out to be 0.063 µg/mL (≈ 0.124 µM).
For the compound `C[C@@H](O)[C@H]1C(=O)N2C(C(=O)[O-])=C(c3cn4cnc(C(=O)c5ccc[n+](CC(=O)C(F)(F)F)c5)c4s3)[C@H](C)[C@H]12`, the MIC was found to be 0.063 µg/mL (≈ 0.115 µM).
